Measured values: ChEMBL document CHEMBL4251596, “Hetero-Diels-Alder reactions of novel 3-triazolyl-nitrosoalkenes as an approach to functionalized 1,2,3-triazoles with antibacterial profile” (Eur J Med Chem, 2018)
Converted amounts (≈) assume the structure as drawn. The source made the active and inactive calls. No cut-off for these calls is given here.

Experiments:
[1] = test system: Staphylococcus simulans; assay: Antibacterial activity against Staphylococcus simulans ATCC 27851 assessed as diameter of inhibition at 30 ug/disk after 24 hrs by disk diffusion assay (reference value: 0 mm); format: functional; settings: ATCC 27851, 24 h, read-out: DIZ
[2] = test system: Pseudomonas aeruginosa; assay: Antibacterial activity against Pseudomonas aeruginosa ATCC 27853 assessed as diameter of inhibition at 30 ug/disk after 24 hrs by disk diffusion assay (reference value: 0 mm); format: functional; settings: ATCC 27853, 24 h, read-out: DIZ
[3] = test system: Klebsiella pneumoniae; assay: Antibacterial activity against Klebsiella pneumoniae ATCC 4352 assessed as diameter of inhibition at 30 ug/disk after 24 hrs by disk diffusion assay (reference value: 0 mm); format: functional; settings: ATCC 4352, 24 h, read-out: DIZ
[4] = test system: Enterococcus faecalis; assay: Antibacterial activity against Enterococcus faecalis ATCC 29212 assessed as diameter of inhibition at 30 ug/disk after 24 hrs by disk diffusion assay (reference value: 0 mm); format: functional; settings: ATCC 29212, 24 h, read-out: DIZ
[5] = test system: Staphylococcus aureus; assay: Antibacterial activity against Staphylococcus aureus ATCC 25923 assessed as diameter of inhibition at 30 ug/disk after 24 hrs by disk diffusion assay (reference value: 0 mm); format: functional; settings: ATCC 25923, 24 h, read-out: DIZ
[6] = test system: Staphylococcus aureus; assay: Antibacterial activity against methicillin-resistant Staphylococcus aureus BMB9393 assessed as diameter of inhibition at 30 ug/disk after 24 hrs by disk diffusion assay (reference value: 0 mm); format: functional; settings: BMB9393, 24 h, read-out: DIZ
[7] = test system: Staphylococcus epidermidis; assay: Antibacterial activity against Staphylococcus epidermidis ATCC 12228 assessed as diameter of inhibition at 30 ug/disk after 24 hrs by disk diffusion assay (reference value: 0 mm); format: functional; settings: ATCC 12228, 24 h, read-out: DIZ
[8] = test system: Serratia marcescens; assay: Antibacterial activity against Serratia marcescens ATCC 14756 assessed as diameter of inhibition at 30 ug/disk after 24 hrs by disk diffusion assay (reference value: 0 mm); format: functional; settings: ATCC 14756, 24 h, read-out: DIZ
[9] = test system: Proteus mirabilis; assay: Antibacterial activity against Proteus mirabilis ATCC 15290 assessed as diameter of inhibition at 30 ug/disk after 24 hrs by disk diffusion assay (reference value: 0 mm); format: functional; settings: ATCC 15290, 24 h, read-out: DIZ
[10] = test system: Enterobacter cloacae; assay: Antibacterial activity against Enterobacter cloacae ATCC 23355 assessed as diameter of inhibition at 30 ug/disk after 24 hrs by disk diffusion assay (reference value: 0 mm); format: functional; settings: ATCC 23355, 24 h, read-out: DIZ
[11] = test system: Staphylococcus aureus; assay: Antibacterial activity against methicillin-resistant Staphylococcus aureus BMB9393 after 24 hrs by microdilution assay; format: functional; settings: BMB9393, 24 h
[12] = (§1) Hemolytic activity in human erythrocytes at 10 to 200 ug/ml after 3 hrs relative to control; format: ADME, cell-based, Erythrocyte; settings: erythrocytes, read-out: Activity
[13] = test system: Staphylococcus aureus; assay: Antibiofilm activity against methicillin-resistant Staphylococcus aureus BMB9393 at 1/2 and 1/4 MIC after 24 hrs by crystal violet based assay; format: functional
[14] = Selectivity index, ratio of MIC for antibacterial activity against methicillin-resistant Staphylococcus aureus BMB9393 to MIC for antibacterial activity against Staphylococcus epidermidis ATCC 12228; format: functional
[15] = test system: Staphylococcus aureus; assay: Selectivity index, ratio of MIC for antibacterial activity against methicillin-resistant Staphylococcus aureus BMB9393 to MIC for antibacterial activity against Staphylococcus aureus ATCC 25923; format: functional
[16] = test system: Staphylococcus aureus; assay: Antibacterial activity against Staphylococcus aureus ATCC 25923 after 24 hrs by microdilution assay; format: functional; settings: ATCC 25923, 24 h
[17] = Selectivity index, ratio of MIC for antibacterial activity against methicillin-resistant Staphylococcus aureus BMB9393 to MIC for antibacterial activity against Staphylococcus simulans ATCC 27851; format: functional
[18] = test system: Staphylococcus simulans; assay: Antibacterial activity against Staphylococcus simulans ATCC 27851 after 24 hrs by microdilution assay; format: functional; settings: ATCC 27851, 24 h
[19] = test system: Staphylococcus aureus; assay: Antibacterial activity against methicillin-resistant Staphylococcus aureus BMB9393 at 1/2 and 1/4 MIC after 24 hrs; format: functional, organism-based
[20] = test system: Staphylococcus epidermidis; assay: Antibacterial activity against Staphylococcus epidermidis ATCC 12228 after 24 hrs by microdilution assay; format: functional; settings: ATCC 12228, 24 h
[21] = test system: Erythrocyte; assay: as §1; format: ADME, cell-based; settings: erythrocyte, 3 h

SMILES | zone of inhibition at 30 µg/disc [1] [mm] | zone of inhibition at 30 µg/disc [2] [mm] | zone of inhibition at 30 µg/disc [3] [mm] | zone of inhibition at 30 µg/disc [4] [mm] | zone of inhibition at 30 µg/disc [5] [mm] | zone of inhibition at 30 µg/disc [6] [mm] | zone of inhibition at 30 µg/disc [7] [mm] | zone of inhibition at 30 µg/disc [8] [mm] | zone of inhibition at 30 µg/disc [9] [mm] | zone of inhibition at 30 µg/disc [10] [mm] | Activity [21] | other results
COc1ccc(-n2cc(/C(Cc3ccc[nH]3)=N/O)nn2)cc1 | 0 | 0 | 0 | 0 | 0 | 0 | 0 | 0 | 0 | 0 |  | 
O/N=C(/CO/N=C(\Cc1c[nH]c2ccccc12)c1cn(-c2ccc(Cl)cc2)nn1)c1cn(-c2ccc(Cl)cc2)nn1 | 0 | 0 | 0 | 0 | 0 | 0 | 0 | 0 | 0 | 0 |  | 
CCC(CC)(c1ccc[nH]1)c1ccc(C/C(=N\O)c2cn(-c3ccc(Cl)cc3)nn2)[nH]1 | 10 | 0 | 0 | 0 | 11 | 8 | 12 | 0 | 0 | 0 |  | MIC [11]: 256 µg/mL (≈ 586 µM); hemolysis at 3 h [12]: < 10%; Activity [13]: 73 - 76%; Selectivity Index [14]: 8; Selectivity Index [15]: 8; MIC [16]: 32 µg/mL (≈ 73.2 µM); Selectivity Index [17]: 8; MIC [18]: 32 µg/mL (≈ 73.2 µM); Activity [19]: Active; MIC [20]: 32 µg/mL (≈ 73.2 µM)
CN[C@H](CC(C)C)C(=O)N[C@H]1C(=O)N[C@@H](CC(N)=O)C(=O)N[C@H]2C(=O)N[C@H]3C(=O)N[C@H](C(=O)N[C@H](C(=O)O)c4cc(O)cc(O)c4-c4cc3ccc4O)[C@H](O)c3ccc(c(Cl)c3)Oc3cc2cc(c3O[C@@H]2O[C@H](CO)[C@@H](O)[C@H](O)[C@H]2O[C@H]2C[C@](C)(N)[C@H](O)[C@H](C)O2)Oc2ccc(cc2Cl)[C@H]1O [VANCOMYCIN] | 20 |  |  | 18 | 15 | 13 | 17 |  |  |  | Non-Toxic | Activity [13]: Active; MIC [18]: 1 µg/mL (≈ 0.69 µM)
O/N=C(\Cc1ccc[nH]1)c1cn(-c2ccccc2)nn1 | 0 | 0 | 0 | 0 | 0 | 0 | 0 | 0 | 0 | 0 |  | 
O=C(O)c1cn(C2CC2)c2cc(N3CCNCC3)c(F)cc2c1=O [CIPROFLOXACIN] |  | 37 | 28 |  |  |  |  | 29 | 39 |  | Non-Toxic | 
O=[N+]([O-])c1ccc(-n2cc(/C(Cc3ccc[nH]3)=N/O)nn2)cc1 | 0 | 0 | 0 | 0 | 0 | 0 | 0 | 0 | 0 | 0 |  | 
O/N=C(\Cc1ccc[nH]1)c1cn(-c2ccc(Cl)cc2)nn1 | 0 | 0 | 0 | 0 | 0 | 0 | 0 | 0 | 0 | 0 |  | 
CC1(C)S[C@@H]2[C@H](NC(=O)Cc3ccccc3)C(=O)N2[C@H]1C(=O)O [PENICILLIN G] |  |  |  |  |  |  |  |  |  |  | Non-Toxic | 
CCC(CC)(c1ccc(C/C(=N\O)c2cn(-c3ccc(Cl)cc3)nn2)[nH]1)c1ccc(C/C(=N\O)c2cn(-c3ccc(Cl)cc3)nn2)[nH]1 | 0 | 0 | 0 | 0 | 0 | 0 | 0 | 0 | 0 | 0 |  | 
